Assay results from patent US20250340457A1, “SYSTEMS AND METHODS FOR EXTRACTION OF FLUORINATED HYDROCARBONS” (Khalifa University of Science and Technology, priority 2024, published 2025).
In brackets after ≈: the same amount, converted by molar mass. Read-outs that look alike come from different tables or passages of the source.

Experiments:
[1] = Thermogravimetric analysis (onset decomposition temperature); format: physicochemical
Text: FIG. 6B illustrates thermogravimetric profiles of TOPO, LauA, and TOPO: LauA (1:1), according to some embodiments. Thermogravimetric analysis is another essential solvent characterization method and is vital for identifying the maximum operational temperature range of a solvent. The onset decomposition temperature (Tonset) marks the start of a noticeable weight loss, indicating initial thermal degradation. Table 3 lists the onset temperatures for TOPO: LauA (1:1), and its thermogravimetric profile is shown in FIG. 6B along with the profiles of pure TOPO and lauric acid for comparison. Hydrogen bonding plays an important role in DES stability by reducing molecular volatility and increasing the energy needed for decomposition. […] This intermediate Tonset reflects the delicate balance of H-bonding strength in the DES that is affected from both the stability of the individual components and the new interactions they form when combined.

[2] = cited from earlier work
[3] = cited from earlier work; remark: listed apart in the source
[4] = test system: rat; conditions: cited from earlier work
[5] = 25° C.; cited from earlier work

| SMILES | Onset decomposition temperature (Tonset) [1] | water solubility [2] | serum elimination half-lives [3] | further results |
| --- | --- | --- | --- | --- |
| CCCCCCCCCCCC(=O)O [Lauric acid, lauric acid] | 207 °C | 0.4 µg/mL (≈ 2 µM) | – | – |
| O=C(O)C(F)(F)C(F)(F)C(F)(F)C(F)(F)C(F)(F)C(F)(F)C(F)(F)F [PFOA, perfluorooctanoic acid] | – | – | 5.4 years | – |
| O=S(=O)(O)C(F)(F)C(F)(F)C(F)(F)C(F)(F)C(F)(F)C(F)(F)C(F)(F)C(F)(F)F [PFOS, perfluorooctane sulfonic acid] | – | – | 3.8 years | – |
| CCCCCCCCP(=O)(CCCCCCCC)CCCCCCCC [TOPO, trioctylphosphine oxide] | 281 °C | 0.15 µg/mL (≈ 0.388 µM) | – | LD50 (oral, rat) ([4]; in vivo, po): 2,000 mg/kg |
| C[N+](C)(C)CCO.[Cl-] [choline chloride, reference compound] | – | – | – | LD50 (oral, rat) ([4]; oral): 3,900 mg/kg |
| Cc1ccc(C(C)C)c(O)c1 [thymol] | – | – | – | inherent density [5]: 0.967 g/mL |
